Tests used:
[1] = system: tyrosine hydroxylase expression in CHP-212 cells; assay: Restoration of tyrosine hydroxylase expression by HDAC inhibitors in CHP-212 cells transfected with DJ-1 siRNA (western blot); format: cell-based, human; details: for reversal of tyrosine hydroxylase inhibition caused by DJ-1 inactivation (in words): CHP-212 cells transfected with DJ-1 siRNA/RNAi
Excerpt: Various acetylated histone species from CHP-212 cells transfected with control or DJ-1 RNAi for 4 days were immunoprecipitated with specific antibodies, and amplified with primers specifically for the human tyrosine hydroxylase promoter using semi-quantitative PCR. Reactions were stopped at indicated PCR cycles for gel analysis. Input: 0.5% of input DNA before IP. The inhibition of endogenous tyrosine hydroxylase and DJ-1 by the DJ-1-specific siRNA for the ChIP assays was confirmed by Western blots. […] after the transfection of control (CTR) or DJ-1 RNAi constructs, CHP-212 cells were treated with increasing amount of sodium butyrate for additional 88 hours before harvesting, with 2 changes of fresh medium containing sodium butyrate during the course of the experiment. […] The protein levels of TH, DJ-1 and β-actin were determined by western blotting.
To validate the role of histone acetylation in DJ-1-mediated regulation of the human tyrosine hydroxylase promoter, CHP-212 cells were transfected with control or DJ-1-specific siRNA. ChIP assays were performed with antibodies that specifically recognize acetylated histones, and the human tyrosine hydroxylase promoter sequences were amplified using semi-quantitative PCR. Consistent with the concurrent inhibition of the tyrosine hydroxylase protein expression, DJ-1 inactivation caused a decrease in the amount of tyrosine hydroxylase promoter-associated acetylated histones, indicating transcriptional silencing (FIG. 6A). Since DJ-1 acted as a transcriptional co-activator eventually promoting histone acetylation, it was likely that chemical inhibitors of HDAC would reverse the effects of DJ-1 inactivation. Therefore, CHP-212 cells were pre-transfected with control or DJ-1-specific siRNA, and the cells were treated with increasing amounts of the HDAC inhibitor sodium butyrate. Sodium butyrate restored tyrosine hydroxylase expression (to 88% of the levels in the control at 0.2 mM) even in the presence of DJ-1 siRNA (FIG. 6B). […]

histone acetylation = assay: Histone acetylation in CHP-212 cells by western blotting; format: cell-based, human; details: data not shown

SMILES | tyrosine hydroxylase expression restored, relative to the levels in the control ([1]; 0.2 mM, CHP-212 cells in the presence of DJ-1 siRNA, western blot) | reversal of tyrosine hydroxylase inhibition caused by DJ-1 inactivation (in words) [1] | histone acetylation (in words) (histone acetylation)
CCCC(=O)[O-].[Na+] [sodium butyrate] | 88 % of the levels in the control | restoration of tyrosine hydroxylase expression | increased histone acetylation
CC(/C=C/C(=O)NO)=C\[C@@H](C)C(=O)c1ccc(N(C)C)cc1 [trichostatin A] |  | similarly reversed the tyrosine hydroxylase inhibition | 
